Among the data in patent publication US10919884B2, “Amide compounds for treatment of immune and inflammatory disorders” (Achillion Pharmaceuticals, Inc., priority 2015, dated 2021) are IC50 values, retold here.

Structures are written as SMILES.

The target in this test is Human Factor D (Homo sapiens (Human), UniProt P00746). Kind of test: Human Factor D Assay. Type of test: biochemical. As to conditions: Human Factor D purified from human serum, 80 nM; substrate Z-L-Lys-SBzl and DTNB 100 μM each; assay of Example 12. How it is done: Example 12. Human Factor D Assay
Human Factor D (purified from human serum, Complement Technology, Inc.) at 80 nM final concentration is incubated with test compound at various concentrations for 5 minutes at room temperature in 50 mM Tris, 1 M NaCl, pH 7.5. A synthetic substrate Z-L-Lys-SBzl and DTNB (Ellman's reagent) are added to final concentrations of 100 μM each. Absorbance at 405 nm (A405) is recorded at 30 second intervals for 30 minutes using a microplate spectrophotometer. IC50 values are calculated by nonlinear regression of complement Factor D reaction rates as a function of test compound concentration.
The assay of Example 12 was used to determine the IC50's of the compounds. Other standard Factor D inhibition assays are also available.

Usually IC50 stands for the midpoint of a concentration-inhibition curve. A lower IC50 goes with greater potency in that assay.

Human Factor D, sequence (P00746 26-253): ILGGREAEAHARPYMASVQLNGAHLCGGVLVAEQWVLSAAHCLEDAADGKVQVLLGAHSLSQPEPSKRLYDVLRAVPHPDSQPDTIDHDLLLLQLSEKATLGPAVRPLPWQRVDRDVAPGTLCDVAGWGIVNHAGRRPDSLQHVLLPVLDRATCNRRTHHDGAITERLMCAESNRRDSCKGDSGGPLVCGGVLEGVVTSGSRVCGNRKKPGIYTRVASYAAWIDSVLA

Take `Cc1cccc(NC(=O)[C@@H]2CC=CCN2C(=O)Cn2cc(C(N)=O)c3cc(NC(=O)N4CCCC(F)(F)C4)ccc32)n1` [Compound 1, (S)-5-(3,3-difluoropiperidine-1-carboxamido)-1-(2-(6-((6-methylpyridin-2-yl)carbamoyl)-5,6-dihydropyridin-1(2H)-yl)-2-oxoethyl)-1H-indole-3-carboxamide]: the IC50 is above 10 µM.

The compound `Cc1cccc(C[C@@H](O)[C@H]2C[C@@H](F)CN2C(=O)Cn2cc(C(N)=O)c3cc(NC(=O)N4CCCC(F)(F)C4)ccc32)n1` [Compound 2, 5-(3,3-difluoropiperidine-1-carboxamido)-1-(2-((2R,4R)-4-fluoro-2-((R)-1-hydroxy-2-(6-methylpyridin-2-yl)ethyl)pyrrolidin-1-yl)-2-oxoethyl)-1H-indole-3-carboxamide] returned an IC50 above 10 µM.

In turn, `Cc1cccc(C[C@H](O)[C@@H]2C[C@@H](F)CN2C(=O)Cn2cc(C(N)=O)c3cc(NC(=O)N4CCCC(F)(F)C4)ccc32)n1` [Compound 3, 5-(3,3-difluoropiperidine-1-carboxamido)-1-(2-((2S,4R)-4-fluoro-2-((S)-1-hydroxy-2-(6-methylpyridin-2-yl)ethyl)pyrrolidin-1-yl)-2-oxoethyl)-1H-indole-3-carboxamide] gave an IC50 above 10 µM.

`Cc1cccc(NC(=O)[C@@H]2CCC(F)CCN2C(=O)Cn2cc(C(N)=O)c3cc(NC(=O)N4CCCC(F)(F)C4)ccc32)n1` (stereo partly drawn) [Compound 4, 5-(3,3-difluoropiperidine-1-carboxamido)-1-(2-((2S)-5-fluoro-2-((6-methylpyridin-2-yl)carbamoyl)azepan-1-yl)-2-oxoethyl)-1H-indole-3-carboxamide] showed an IC50 above 10 µM.

Take `Cc1cccc(NC(=O)[C@@H]2CC=CCN2C(=O)Cn2cc(C(N)=O)c3cc(C(=O)NS(=O)(=O)C4CC4)ccc32)n1` [Compound 5, (S)-N5-(cyclopropylsulfonyl)-1-(2-(6-((6-methylpyridin-2-yl)carbamoyl)-5,6-dihydropyridin-1(2H)-yl)-2-oxoethyl)-1H-indole-3,5-dicarboxamide]: the IC50 was above 10 µM.
